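Cultured in 96-well plates, cells were exposed to test compound for 48 hours across five concentrations. GI50: concentration for 50% inhibition of growth.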 The source made the active and inactive calls. Cut-off read from the data, not from the text of the source: active = GI50 up to about 1.1 µM and inactive = higher.
Assays:
Experiment in all cases: growth of human tumour cells (NCI), 48 h
[1] = tested on: UO-31
[2] = tested on: SN12C
[3] = tested on: A498
[4] = tested on: OVCAR-5
[5] = tested on: SK-MEL-28
[6] = tested on: MOLT-4
[7] = tested on: TK-10
[8] = tested on: HCC 2998
[9] = tested on: T47D
[10] = tested on: NCI-H226
[11] = tested on: A549
[12] = tested on: ACHN
[13] = tested on: SW-620
[14] = tested on: CAKI-1
[15] = tested on: MCF7
[16] = tested on: HOP-62
[17] = tested on: BT-549
[18] = tested on: OVCAR-3
[19] = tested on: IGROV-1
[20] = tested on: DLD-1

Row | Compound | GI50 [1] | GI50 [2] | GI50 [3] | GI50 [4] | GI50 [5] | GI50 [6] | GI50 [7] | GI50 [8] | GI50 [9] | GI50 [10] | GI50 [11] | GI50 [12] | GI50 [13] | GI50 [14] | GI50 [15] | GI50 [16] | GI50 [17] | GI50 [18] | GI50 [19] | GI50 [20]
1 | COc1ccc2oc(=O)c(-c3nc4ccccc4o3)cc2c1 | > 100 µM (inactive) | > 100 µM (inactive) | 67.9 µM (inactive) | > 100 µM (inactive) | > 100 µM (inactive) | > 100 µM (inactive) | > 100 µM (inactive) | 55 µM (inactive) | 58.2 µM (inactive) | > 100 µM (inactive) | > 100 µM (inactive) | > 100 µM (inactive) | > 100 µM (inactive) | > 100 µM (inactive) | 32.7 µM (inactive) | 64.9 µM (inactive) | > 100 µM (inactive) | 59.4 µM (inactive) | > 100 µM (inactive) | –
2 | Oc1ccc2ccccc2c1/C=C/c1ccc2c(Br)cc(Br)c(O)c2n1 | 4.05 µM (inactive) | 5.04 µM (inactive) | 5.64 µM (inactive) | 7.76 µM (inactive) | 12.8 µM (inactive) | 1.59 µM (inactive) | 11 µM (inactive) | 6.97 µM (inactive) | 11.6 µM (inactive) | 5.02 µM (inactive) | 4.74 µM (inactive) | 5.6 µM (inactive) | 4.9 µM (inactive) | 11 µM (inactive) | 1.24 µM (inactive) | 8.17 µM (inactive) | 12.3 µM (inactive) | 2.49 µM (inactive) | 2.17 µM (inactive) | –
3 | CC(=O)/C(=C\c1ccccc1)C(=O)Nc1ccccc1 | > 100 µM (inactive) | > 100 µM (inactive) | – | > 100 µM (inactive) | – | > 100 µM (inactive) | > 100 µM (inactive) | > 100 µM (inactive) | – | > 100 µM (inactive) | > 100 µM (inactive) | > 100 µM (inactive) | > 100 µM (inactive) | > 100 µM (inactive) | – | > 100 µM (inactive) | – | > 100 µM (inactive) | > 100 µM (inactive) | > 100 µM (inactive)
4 | COc1cc2cnc3c4cc(O)ccc4ccc3c2cc1OC | > 100 µM (inactive) | 35.2 µM (inactive) | – | > 100 µM (inactive) | 65.6 µM (inactive) | 31.1 µM (inactive) | > 100 µM (inactive) | 91 µM (inactive) | – | 26.4 µM (inactive) | > 100 µM (inactive) | > 100 µM (inactive) | 54.7 µM (inactive) | > 100 µM (inactive) | – | 36.8 µM (inactive) | – | 17.6 µM (inactive) | 75.7 µM (inactive) | > 100 µM (inactive)
5 | CCCCCCCCCCCCCS(=O)(=O)NCC(N)=O | > 100 µM (inactive) | > 100 µM (inactive) | > 100 µM (inactive) | > 100 µM (inactive) | > 100 µM (inactive) | – | > 100 µM (inactive) | > 100 µM (inactive) | – | > 100 µM (inactive) | > 100 µM (inactive) | > 100 µM (inactive) | > 100 µM (inactive) | – | – | > 100 µM (inactive) | – | > 100 µM (inactive) | > 100 µM (inactive) | > 100 µM (inactive)
6 | CC[P+]1(c2ccccc2)CCCCC1 | > 100 µM (inactive) | > 100 µM (inactive) | – | > 100 µM (inactive) | > 100 µM (inactive) | > 100 µM (inactive) | > 100 µM (inactive) | > 100 µM (inactive) | – | > 100 µM (inactive) | > 100 µM (inactive) | > 100 µM (inactive) | > 100 µM (inactive) | > 100 µM (inactive) | – | > 100 µM (inactive) | – | > 100 µM (inactive) | > 100 µM (inactive) | > 100 µM (inactive)
7 | CCCC(C(=O)OC)C1N/C(=N/C#N)N(Cc2ccccc2)C1=O (stereo unspecified) | 67.1 µM (inactive) | > 100 µM (inactive) | – | > 100 µM (inactive) | > 100 µM (inactive) | > 100 µM (inactive) | > 100 µM (inactive) | > 100 µM (inactive) | – | – | > 100 µM (inactive) | > 100 µM (inactive) | > 100 µM (inactive) | > 100 µM (inactive) | – | > 100 µM (inactive) | – | > 100 µM (inactive) | > 100 µM (inactive) | > 100 µM (inactive)
8 | COc1ccccc1N1C(=O)C2c3[nH]c4ccccc4c3C3CCC(C(C)(C)C)CC3C2C1=O (stereo unspecified) | > 100 µM (inactive) | > 100 µM (inactive) | > 100 µM (inactive) | – | > 100 µM (inactive) | > 100 µM (inactive) | – | > 100 µM (inactive) | – | > 100 µM (inactive) | > 100 µM (inactive) | > 100 µM (inactive) | > 100 µM (inactive) | – | – | > 100 µM (inactive) | – | – | > 100 µM (inactive) | > 100 µM (inactive)
9 | O=C(c1ccccc1)c1c(C(=O)c2ccccc2)c(-c2ccccc2)c2c(-c3ccccc3)sc(-c3ccccc3)c2c1-c1ccccc1 | > 100 µM (inactive) | > 100 µM (inactive) | > 100 µM (inactive) | > 100 µM (inactive) | > 100 µM (inactive) | – | > 100 µM (inactive) | > 100 µM (inactive) | – | > 100 µM (inactive) | > 100 µM (inactive) | > 100 µM (inactive) | > 100 µM (inactive) | > 100 µM (inactive) | – | > 100 µM (inactive) | – | > 100 µM (inactive) | > 100 µM (inactive) | > 100 µM (inactive)
10 | O=C1NC(=O)/C(=N\c2cccc3c(=O)[nH][nH]c(=O)c23)C(c2nc3ccccc3s2)C1=O (stereo unspecified) | > 100 µM (inactive) | > 100 µM (inactive) | > 100 µM (inactive) | – | > 100 µM (inactive) | 71.1 µM (inactive) | > 100 µM (inactive) | 89.7 µM (inactive) | – | > 100 µM (inactive) | > 100 µM (inactive) | > 100 µM (inactive) | > 100 µM (inactive) | > 100 µM (inactive) | – | > 100 µM (inactive) | – | > 100 µM (inactive) | > 100 µM (inactive) | > 100 µM (inactive)
11 | O=C(CC(=O)N1N=C(n2ccc3ccccc32)CC1c1ccccc1)Nc1cccc(Cl)c1 (stereo unspecified) | > 100 µM (inactive) | > 100 µM (inactive) | > 100 µM (inactive) | > 100 µM (inactive) | > 100 µM (inactive) | > 100 µM (inactive) | > 100 µM (inactive) | > 100 µM (inactive) | – | – | > 100 µM (inactive) | > 100 µM (inactive) | > 100 µM (inactive) | – | – | > 100 µM (inactive) | – | > 100 µM (inactive) | > 100 µM (inactive) | > 100 µM (inactive)
12 | CN(C)C(=S)N/N=C\C(=N/NC(=S)N(C)C)c1ccccc1 | 3.69 µM (inactive) | 6.24 µM (inactive) | 7.21 µM (inactive) | > 30.9 µM (inactive) | 7.16 µM (inactive) | > 100 µM (inactive) | 6.87 µM (inactive) | 7.53 µM (inactive) | 1.28 µM (inactive) | 4.61 µM (inactive) | 5.31 µM (inactive) | 3.72 µM (inactive) | 4.53 µM (inactive) | 7.24 µM (inactive) | 4.03 µM (inactive) | 6.05 µM (inactive) | > 22.2 µM (inactive) | 2.7 µM (inactive) | 3.7 µM (inactive) | –
13 | COc1cccc(/N=N/C(=N/NC(=O)c2ccc(C)cc2)c2ccc(N(CCC#N)CCC#N)cc2OC)c1 | > 100 µM (inactive) | > 100 µM (inactive) | > 100 µM (inactive) | 24.4 µM (inactive) | > 100 µM (inactive) | > 100 µM (inactive) | 8.05 µM (inactive) | 8.28 µM (inactive) | > 100 µM (inactive) | > 100 µM (inactive) | > 100 µM (inactive) | > 100 µM (inactive) | > 100 µM (inactive) | > 100 µM (inactive) | > 100 µM (inactive) | > 100 µM (inactive) | > 100 µM (inactive) | > 100 µM (inactive) | > 100 µM (inactive) | –
14 | O=C1CC(C2(O)C(=O)Nc3ccc([N+](=O)[O-])cc32)c2ccccc21 (stereo unspecified) | > 100 µM (inactive) | 31.8 µM (inactive) | 72.8 µM (inactive) | > 100 µM (inactive) | 24.8 µM (inactive) | 20.7 µM (inactive) | > 100 µM (inactive) | 20.6 µM (inactive) | – | 14.7 µM (inactive) | 62.4 µM (inactive) | 54.1 µM (inactive) | 28.2 µM (inactive) | – | – | 64 µM (inactive) | – | 25.4 µM (inactive) | 17.8 µM (inactive) | 40 µM (inactive)
15 | O=c1[nH]cc(COCCO)c(=O)[nH]1 | > 100 µM (inactive) | > 100 µM (inactive) | > 100 µM (inactive) | > 100 µM (inactive) | > 100 µM (inactive) | > 100 µM (inactive) | > 100 µM (inactive) | – | – | > 100 µM (inactive) | > 100 µM (inactive) | > 100 µM (inactive) | > 100 µM (inactive) | > 100 µM (inactive) | – | > 100 µM (inactive) | – | > 100 µM (inactive) | > 100 µM (inactive) | > 100 µM (inactive)
16 | CC1=C(C(=O)Nc2ccccc2C)C(c2ccc(Cl)cc2)C(C(=O)Nc2ccccc2C)=C(C)N1 | > 100 µM (inactive) | > 100 µM (inactive) | – | > 100 µM (inactive) | > 100 µM (inactive) | > 100 µM (inactive) | > 100 µM (inactive) | > 100 µM (inactive) | – | > 100 µM (inactive) | > 100 µM (inactive) | > 100 µM (inactive) | > 100 µM (inactive) | > 100 µM (inactive) | – | > 100 µM (inactive) | – | > 100 µM (inactive) | > 100 µM (inactive) | > 100 µM (inactive)
17 | Cc1c2ccncc2c(C)c2c1[nH]c1ccc(OCC(F)(F)F)cc12 | 1.73 µM (inactive) | 1.37 µM (inactive) | – | 1.53 µM (inactive) | 1.73 µM (inactive) | 0.824 µM (active) | 2.1 µM (inactive) | – | – | 1.83 µM (inactive) | 1.79 µM (inactive) | 1.55 µM (inactive) | 0.619 µM (active) | 2.11 µM (inactive) | – | 1.63 µM (inactive) | – | 1.85 µM (inactive) | 1.61 µM (inactive) | 1.57 µM (inactive)

Reference: ChEMBL document CHEMBL1201862, “PubChem BioAssay data set” (2004)
